The values below are quoted from earlier work in patent US20110117175A1, “SWEET ANALGESIC FOR USE IN MEDICAL PROCEDURES OR TREATMENTS” (priority 2009, published 2011).

The subject of data set [1] is infant or neonate.
For data set [2], the system named is patients older than infants.
The conditions of data set [3]: minimal amount of sugar used.
Where [4] appears, read: 1 to 2 drops on tongue or pacifier.

Consider `OC[C@H]1O[C@@](CO)(O[C@H]2O[C@H](CO)[C@@H](O)[C@H](O)[C@H]2O)[C@@H](O)[C@@H]1O` [sucrose], for which, in data set [1] (setting [4]), the “duration of infant or neonate response” value is “up to 10 minutes” and the “time to infant or neonate response” value was “up to 10 seconds”. The pain response entry in data set [1] (infant or neonate, given prior to a painful procedure) is on record as “decreases the pain response”. Further, in data set [2] (adult patients (studies of adult woman)), the “use as an analgesic” value is reported as “ineffective”. The pain relief result in data set [2] (patients older than infants) is given as “unsuccessful”. Moreover, the blood glucose levels entry in data set [3] is given as “no increase”.
